The source of these data is patent US9145375B2, “Quinazolinone compounds” (PRANA BIOTECHNOLOGY LIMITED, priority 2008, dated 2015).

Data set [1] in a line: Plasma Protein Binding, mouse. It counts as in vitro ADME.
Data set [2] can be described thus: Plasma Protein Binding, rat. It counts as in vitro ADME.
The target in data set [3] is CYP2E1 (Homo sapiens, UniProt P05181). Description: CYP450 inhibition, specific substrate approach in human liver microsomes: CYP2E1. It counts as in vitro ADME. Details: using a specific substrate approach in human liver microsomes; from tissue; host or cells: human liver microsomes. How it is done:
CYP450 Isoform Inhibition Using a Specific Substrate Approach
The present study is a “Tier 2” screen to assess potential enzyme inhibition at a test compound concentration of 20 μM using a specific substrate approach in human liver microsomes.
The substrate specific enzyme inhibition study relies on the formation of a metabolite that is mediated by a specific CYP450 isoform using human liver microsomes. In the current study, the following reactions were monitored to assess interactions with specific CYP450 isoforms. A known inhibitor of each isoform was included in each assay as a positive control. The following IC50 values have been reported in the literature using equivalent assay conditions for each CYP450 isoform:
The reaction was initiated by the addition of an NADPH-regenerating system and was quenched by the addition of acetonitrile prior to determining the concentration (and apparent rate of formation) of the specific metabolite by LC/MS.
The IC50 was deemed to be the concentration at which there was a 50% reduction in the amount of metabolite formed, relative to the maximal extent of formation.
A general note: Liver microsomes are a subcellular fraction often used to study metabolism.

Data set [4] concerns generation of hydrogen peroxide (H2O2) by iron. As to the kind of experiment: H2O2 Inhibition Assay. It counts as biochemical. How it is done: Assay 1. H2O2 Inhibition Assay.
This fluoresence assay evaluates the ability of a test compound to inhibit the generation of hydrogen peroxide (H2O2) by iron in the presence of a reducing substrate such as ascorbic acid. In the assay, iron in the form of FeCl3 or copper is allowed to react with ascorbic acid by incubating for 1 hr at 37° C. in the presence of the fluorescing compound DCF and horseradish peroxidase. H2O2 generated by the system is assessed by measuring the specific fluorescence profile at the excitation and emission wavelengths of 485 and 530 nm respectively, in the presence of increasing concentrations of test compound. Test compounds are ranked according to their capacity to inhibit H2O2 generated by the system where lower values reflect greater ability to inhibit H2O2 production.

Data set [5] relates to M17 human neuroblastoma cells. As to the kind of experiment: Metal Uptake Assay (metal transport). The format is cell-based. As to conditions: 10 μM Cu + 10 μM compound, 5 hours. How it is done:
Assay 3. Metal Uptake Assay
M17 human neuroblastoma cells are plated out on 6 well plates and left overnight. Enough cells are added to give approximately 70% confluent the following day of the experiment. Test compounds are added to media and mixed with equi-molar amounts of CuCl2 solution. A=10 μM Cu+10 μM MPAC; B=10 μM Cu+10 μM MPAC.
Cells are incubated in 1 ml of media/MPAC/Cu mix for 5 hours at 37° C. At the end of the incubation the media is removed with a vacuum aspirator and 1 ml of PBS added to dislodge the cells. Cells are then put into Eppendorf tubes and pelleted. The PBS is removed and the remaining cell pellets are frozen at −20 C.
The cell pellets are prepared as follows:
Received cell pellets of similar levels in 1.5 ml microfuge tubes. Added 50 μl of concentrated Nitric Acid (Aristar, BDH) to each cell pellet and allowed them to digest over night. Heated the samples for 20 min at 90° C. to complete the digestion. The volume of each sample was reduced to ˜45 ul after digestion. Added 1 ml of the 1% Nitric Acid diluent to each sample. (referred to as the “preparation solution” samples).
Measurements were made using a Varian UltraMass ICPMS instrument under operating conditions suitable for routine multi-element analysis.
The instrument was calibrated using Blank, 10, 50 and 100 ppb of a certified multi-element ICPMS standard solution (ICP-MS—CAI2-1, Accustandard) for Fe, Cu and Zn in 1% nitric acid. Used an certified internal standard solution containing 100 ppb Yttrium (Y 89) as an internal control (ICP-MS—IS-MIX1-1, Accustandard).

Data set [6] relates to M17. As to the kind of experiment: Cytotox (% viable), cells marked M17. It counts as cell-based, human. As to conditions: repeat values given.
The subject of data set [7] is Neuronal cortical cells. Description: Cytotox (% viable); Primary Neuronal Cells Neurotoxicity Assay. It counts as cell-based, mouse. The settings on record: cell type not given, repeat values given. How it is done: Assay 2 (a). Primary Neuronal Cells Neurotoxicity Assays
Cortical cultures were prepared as previously described (White et al., 1998). Embryonic day 14 BL6Jx129sv mouse cortices were removed, dissected free of meninges and dissociated in 0.025% (wt/vol) trypsin. Dissociated cells were plated in 48 well culture plates at a density of 2×10^6 cells/mL in MEM with 25% (vol/vol) FCS and 5% (vol/vol) HS and incubated at 37° C., 2 hrs. Media was then replaced with Neurobasal media (Invitrogen Life Technologies) and B27 supplements (Invitrogen Life Technologies). Cultures were maintained at 37° C. in 5% CO2. Prior to experimentation, the culture medium was replaced with Neurobasal media and B27 minus antioxidants (Invitrogen Life Technologies).
Neuronal cortical cells were cultured for five days as per Assay 2 in NB media and B27 supplement.
On day six the test compounds were added to the neuronal cell cultures in NB media and B27 supplement minus antioxidants.
Test compounds were dissolved in 100% DMSO to a concentration of 2.5 mM (10 mM if excess compound was weighed out per vial—then diluted to 2.5 mM). 2.5 mM stock solution was serially diluted 1 in 10 to give working solutions of 250 uM, 25 uM, 2.5 uM. Test compounds were not added directly to cells, instead they were added to a 48 well ‘Drug Plate’ as comprised below: • Preparation of “Drug Plate”:
Well 1: 576 ul NB+B27 (no antioxidant)*+24 ul 2.5 uM test compound
Well 2: 576 ul NB+B27 (no antioxidant)+24 μl 25 uM test compound
Well 3: 576 ul NB+B27 (no antioxidant)+24 ul 250 uM test compound
Well 4: 576 ul NB+B27 (no antioxidant)+24 ul 2.5 uM test compound
Well 5: 576 ul NB+B27 (no antioxidant)+24 ul 25 uM test compound
Well 6: 576 ul NB+B27 (no antioxidant)+24 ul 250 uM test compound
Well 7: 576 ul NB+B27 (no antioxidant)+24 ul test compound diluent**
Well 8: 600 ul NB+B27 (no antioxidant)
The Drug Plate was incubated at 37° C. for 15 mins. 200 ul of each well was added in triplicate to the corresponding cell plate. The cell plate was incubated at 37° C., for 4 days, (2 compounds are tested on each plate of cells).
*NB media and B27 (no antioxidants),
**PBT diluent 10% DMSO in NB+1327 (no antioxidants)
On completion of the assay, 1/10 volume MTS was added per well of plate (ie 25 ul/250 ul). The plates were incubated at 37° C. for 2 hrs, and then absorbance was read at 560 nm.

By fraction unbound is commonly meant the share of the substance not bound to proteins or other matrix. Low readings indicate extensive binding, high ones weak binding. A word on the IC50: it is the point on the concentration scale where inhibition reaches its midpoint. Low readings indicate greater potency in that assay, high ones weaker potency in that assay.

Structures are written as SMILES. Where “and” joins values, the source holds several entries; their conditions need not be identical. Equal values may be shown once.

CYP2E1, sequence (P05181 whole entry, canonical isoform): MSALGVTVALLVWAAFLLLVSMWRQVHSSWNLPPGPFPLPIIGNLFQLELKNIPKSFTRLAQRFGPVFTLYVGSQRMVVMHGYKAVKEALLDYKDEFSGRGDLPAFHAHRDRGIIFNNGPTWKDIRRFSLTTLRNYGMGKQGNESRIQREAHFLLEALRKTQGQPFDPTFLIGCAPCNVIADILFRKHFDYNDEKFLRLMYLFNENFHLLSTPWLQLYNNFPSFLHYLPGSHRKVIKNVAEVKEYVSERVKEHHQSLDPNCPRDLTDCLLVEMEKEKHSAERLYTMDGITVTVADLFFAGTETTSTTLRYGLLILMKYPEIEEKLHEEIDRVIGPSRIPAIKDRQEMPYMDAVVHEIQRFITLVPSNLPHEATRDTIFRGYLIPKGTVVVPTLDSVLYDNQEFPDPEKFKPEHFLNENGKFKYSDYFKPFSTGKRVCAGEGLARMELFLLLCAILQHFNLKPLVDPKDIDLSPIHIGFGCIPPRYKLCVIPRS

Take `CCn1c(CN(C)C)nc2c(O)c(Cl)cc(Cl)c2c1=O.Cl` [Compound F4268]: the fraction unbound in data set [1] was 0.178 to 0.203; in data set [2] it was 0.052 to 0.055. In addition, the half-maximal inhibitory concentration (IC50) in data set [3] is greater than 20000 nM.

Consider `CN(C)Cc1nc2c(O)c(Cl)cc(Cl)c2c(=O)n1C` [Compound F4269, 5,7-Dichloro-2-(dimethylamino)methyl-8-hydroxy-3-methylquinazolin-4(3H)-one], for which the figures for the free fraction (fraction unbound) in data set [1] and in data set [2] were 0.582 to 0.658 and 0.074 to 0.116, respectively.

In data set [4], `CCN(CC)Cc1nc2c(O)c(Cl)cc(Cl)c2c(=O)n1CC1CC1` [Compound F4385] registered an IC50 of 910 nM. Also, the Metal transport result in data set [5] is on record as “Metal transport 9%”. For the same compound, the “Cytotox (% viable at 1 uM)” value in data set [6] is 99.2% and 105.0%. The “Cytotox (% viable at 10 uM)” value in data set [6] (10 uM) came out at 97.7%.

In data set [4], `C#CCN(C)Cc1nc2c(O)c(Cl)cc(Cl)c2c(=O)n1CC1CC1` [Compound F4387] returned an IC50 of 460 nM. For the same compound, the Metal transport result in data set [5] is given as “Metal transport 111%”. The “Cytotox (% viable at 1 uM)” value in data set [6] was 104.0% and 92.7% and 95.9% and 100.7%.

In turn, `Br.CCn1c(CNC)nc2c(O)c(Cl)cc(Cl)c2c1=O` [Compound F4486] displayed an IC50 in data set [4] of 1930 nM. Further, in data set [5], the Metal transport result was “Metal transport 14%”. In data set [7], the “Cytotox (% viable at 1 uM)” value was 97.9% and 101.4%; the “Cytotox (% viable at 10 uM)” value was 52.2% and 43.3%.

On to `CCNCc1nc2c(O)c(Cl)cc(Cl)c2c(=O)n1CC` [Compound F4495], for which the IC50 in data set [4] worked out at 770 nM. Moreover, the Metal transport entry in data set [5] is given as “Metal transport 8%”. In data set [7], the “Cytotox (% viable at 1 uM)” value is 89.3% and 112.8%; the “Cytotox (% viable at 10 uM)” value is 47.9% and 57.1%.

Take `Br.CCNCc1nc2c(O)c(Cl)cc(Cl)c2c(=O)n1C` [Compound F4496]: in data set [4], the midpoint of inhibition, the IC50, lay at 830 nM. Moreover, in data set [5], the Metal transport result is reported as “Metal transport 7%”. Moreover, in data set [7], the “Cytotox (% viable at 1 uM)” value is 102.7% and 114.6%; the “Cytotox (% viable at 10 uM)” value is 59.4% and 101.2%.
